By IC50 is commonly meant the concentration that inhibits the measured activity by half. For orientation: Ki means a measure of affinity in units of concentration, obtained from inhibition or displacement. The low end stands for tighter binding, the high end for weaker binding.

Experiment [1] relates to Streptococcus 6646K NA (StrepNA). It counts as biochemical.
In experiment [2] the target is Clostridium perfringens NanJ NA (CpNA) (Clostridium perfringens, UniProt A0A0H2YT71). It counts as biochemical.
Experiment [3] addresses A/RI/5+/1957(H2N2) NA (N2) (Influenza A virus, UniProt Q194T1). Put plainly: biochemical. It counts as biochemical, influenza A/RI/5+/1957(H2N2).
For the next experiment, the system named is influenza NA. Particulars: cited from earlier work.
The test system of another experiment is N2. The following applies: cited from earlier work.

Sequence of Clostridium perfringens NanJ NA (CpNA) (A0A0H2YT71 27-1173 limits assumed): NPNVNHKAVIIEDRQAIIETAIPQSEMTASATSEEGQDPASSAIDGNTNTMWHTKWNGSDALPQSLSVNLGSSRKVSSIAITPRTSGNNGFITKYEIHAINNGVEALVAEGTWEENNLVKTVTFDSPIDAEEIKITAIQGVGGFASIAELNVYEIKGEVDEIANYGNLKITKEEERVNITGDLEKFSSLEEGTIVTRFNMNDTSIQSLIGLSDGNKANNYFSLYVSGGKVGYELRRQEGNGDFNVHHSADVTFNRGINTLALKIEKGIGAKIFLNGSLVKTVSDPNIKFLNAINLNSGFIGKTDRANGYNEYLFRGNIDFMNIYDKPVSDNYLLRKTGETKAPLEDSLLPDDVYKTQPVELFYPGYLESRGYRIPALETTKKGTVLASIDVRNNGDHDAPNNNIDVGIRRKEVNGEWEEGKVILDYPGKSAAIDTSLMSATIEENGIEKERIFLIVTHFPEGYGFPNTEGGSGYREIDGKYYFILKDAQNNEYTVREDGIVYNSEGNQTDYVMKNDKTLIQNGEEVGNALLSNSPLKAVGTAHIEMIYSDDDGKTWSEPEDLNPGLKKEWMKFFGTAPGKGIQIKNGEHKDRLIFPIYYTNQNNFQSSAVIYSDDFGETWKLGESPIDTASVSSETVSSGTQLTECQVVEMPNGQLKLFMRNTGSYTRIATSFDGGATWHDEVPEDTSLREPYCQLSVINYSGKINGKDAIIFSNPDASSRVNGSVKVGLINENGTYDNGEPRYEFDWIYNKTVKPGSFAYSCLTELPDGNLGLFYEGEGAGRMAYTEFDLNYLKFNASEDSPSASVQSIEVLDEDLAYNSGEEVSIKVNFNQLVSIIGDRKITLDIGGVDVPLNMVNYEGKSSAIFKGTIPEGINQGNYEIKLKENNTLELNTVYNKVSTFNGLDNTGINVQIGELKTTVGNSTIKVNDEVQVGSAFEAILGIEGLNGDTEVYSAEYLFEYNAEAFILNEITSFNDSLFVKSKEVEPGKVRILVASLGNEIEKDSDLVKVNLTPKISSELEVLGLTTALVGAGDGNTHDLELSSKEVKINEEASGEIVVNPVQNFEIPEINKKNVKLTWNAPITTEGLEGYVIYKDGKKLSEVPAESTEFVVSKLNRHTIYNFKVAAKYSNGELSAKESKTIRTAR

In turn, `CC(=O)N[C@H]1[C@H]([C@H](O)[C@H](O)CO)O[C@H](S(=O)(=O)O)C[C@@H]1O` [7a, 4-Acetamido-1-sulfo-1,2,4-trideoxy-D-glycero-D-galacto-octopyranose] gave an IC50 in experiment [1] of 3.74 µM. In addition, the “potency for CpNA inhibition relative to eqPO3H” value in experiment [2] worked out at 8.5 fold. In addition, in experiment [2] (read-out: CpNA IC50), the IC50 came out at 37.5 µM. In experiment [3], half-maximal inhibition (IC50) required 8.86 µM, affinity was put at a Ki of 2.47 µM and the “potency for inhibition of influenza N2 relative to eqPO3H” value was determined as 40 fold.

On to `CCOC(=O)C1=C[C@@H](OC(CC)CC)[C@H](NC(C)=O)[C@@H](N)C1` [oseltamivir], for which, in the experiment with influenza NA, the “inhibition of influenza NA” value is recorded as “low nanomolar level”.

For peramivir, in the experiment on influenza NA, the “inhibition of influenza NA” value was “low nanomolar level”.

For `CC(=O)N[C@H]1[C@H]([C@H](O)[C@H](O)CO)OC(C(=O)O)=C[C@@H]1O` [Neu4Ac2en, 2,3-dehydro-2-deoxy-N-acetylneuraminic acid], the IC50 in the experiment on N2 is 19 µM.

In the case of `[H]/N=C(\N)N[C@H]1C=C(C(=O)O)O[C@@H]([C@H](OC)[C@H](O)CO)[C@@H]1NC(C)=O` [laninamivir], in the experiment on influenza NA, the “inhibition of influenza NA” value is “low nanomolar level”.

As for `CC(=O)N[C@H]1[C@H]([C@H](O)[C@H](O)CO)OC(C(=O)O)=C[C@@H]1N=C(N)N` [zanamivir], the “inhibition of influenza NA” value in the experiment on influenza NA is “low nanomolar level”.

In experiment [3], `CC(=O)N[C@H]1[C@H]([C@H](O)[C@H](O)CO)O[C@@H](S(=O)(=O)O)C[C@@H]1O` [7b, 4-Acetamido-1-sulfo-1,2,4-trideoxy-D-glycero-D-galacto-octopyranose] returned an IC50 of 120 µM and an inhibition constant Ki of 33.5 µM.

In experiment [3], `CC(=O)N[C@@H]1C=C[C@H](S(=O)(=O)O)O[C@H]1[C@H](O)[C@H](O)CO` [8b, 4-Acetamido-1-sufo-2,3-didehydro-1,2,3,4-tetradeoxy-D-glycero-D-galacto-octopyranose] gave an IC50 of 316 µM and a Ki of 88.1 µM.

The record behind these values is publication PMC5557986 (Scientific Reports, 2017).
